# According to US12570670B2, “Compounds, compositions, and methods for treating fibrosis” (YALE UNIVERSITY, priority 2019, dated 2026):
# Read-outs that look alike come from different tables or passages of the source.
# Experiments:
# [1] = tested on: JNK; assay: JNK activation in C2C12 myoblasts (pMAPK/MAPK immunoblot); type: cell-based, mouse
# Experimental: (§1) C2C12 myoblasts were cultured as described previously. Substantively, wild type (mkp-5^+/+) and MKP5-deficient (mkp-5^−/−) mouse embryo fibroblasts (MEFs) were generated from female mice at days 13-14 of pregnancy and established by spontaneous immortalization. C2C12 myoblasts and MEFs were treated with 1 at the indicated concentrations for 24 h. For immunoblotting, C2C12 myoblasts or MKP5 wild type and MKP5-deficient fibroblasts were lysed on ice in lysis buffer and clarified by centrifugation at 20,800×g at 4° C. for 20 min. Protein concentration was determined using BCA reagent according to the manufacturer's instructions (Pierce). Recombinant human TGF-β1 (240-B-002) was purchased from R&D Systems. For phospho-MAPK and MAPK immunoblotting, lysates were resolved by SDS-PAGE and transferred onto nitrocellulose membranes (Bio-Rad). Membranes were blocked with 5% nonfat dry milk or 5% BSA in Tris-buffered saline/Tween 20 (TBS-T) for 1 h at room temperature or overnight at 4° C. Primary antibodies were diluted in 5% BSA or 5% nonfat dry milk in TBS-T. MAPK and Smad2 activation were calculated as the ratio of the indicated phosphorylated MAPK or phosphorylated Smad2 to total MAPK or Smad2, respectively by direct fluorescence quantitation using the Odyssey CLx Imaging System. Images were processed with the LI-COR Image Studio Software.
# [2] = target: T1, MKP5-CD (Homo sapiens, UniProt Q9Y6W6); assay: Microscale thermophoresis binding assay; conditions: fluorescently-labeled MKP5-CD, FIG. 1D; read-out: dissociation constant (Kd)
# T1 construct: The catalytic domain of MKP5 (MKP5-CD, residues 320-467) was inserted into a pET-28a vector; His-tag (N, cleaved yes); made in house; host or cells: E. coli BL21 (DE3)
# T1 sequence (Q9Y6W6 320-467): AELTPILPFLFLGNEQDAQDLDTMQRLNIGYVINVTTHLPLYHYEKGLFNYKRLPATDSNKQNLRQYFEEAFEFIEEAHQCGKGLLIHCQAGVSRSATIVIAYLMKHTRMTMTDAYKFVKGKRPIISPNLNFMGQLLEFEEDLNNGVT
# Experimental: (§2) Binding interactions between MKP5-CD and 1 were carried out using microscale thermophoresis (MST) on a Monolith NT.115Pico instrument. MKP5-CD was labeled for MST using NanoTemper Monolith NTTM Protein Labeling Kit RED-NHS 2nd Generation (#MO-L011). Briefly, MKP5-CD was transferred into the provided labeling buffer and diluted to 20 μM. Dye was added in a 2-fold molar excess and allowed to incubate 30 minutes at room temperature. Excess dye was removed using the provided column equilibrated in 50 mM Tris pH 8.0, 150 mM NaCl, 0.05% Tween-20. A fixed amount of labeled wild-type or mutant MKP5-CD was combined with up to 200 μM 1 and loaded into premium capillaries. MST experiments were carried out at 40% IR power for 20 seconds. Normalized fluorescence (Fnorm) values at a given time were plotted against inhibitor concentration, and the Kd was determined by fitting with a hyperbolic binding curve. Experiments were performed in triplicate and data are presented as means±SD.
# [3] = target: T2, MKP5-CD (catalytic domain of MKP5, residues 320-467) (Homo sapiens, UniProt Q9Y6W6); assay: Malachite green phosphatase assay of MKP5-CD with p38α MAPK phosphopeptide substrate; type: biochemical
# T2 construct: The catalytic domain of MKP5 (MKP5-CD, residues 320-467) was inserted into a pET-28a vector; His-tag (N, cleaved yes); made in house; host or cells: E. coli BL21 (DE3)
# T2 sequence (Q9Y6W6 320-467): T1 sequence (Q9Y6W6 320-467)
# Experimental: A small molecule collection was screened for activity against MKP5-CD using a malachite green assay in 384-well format. MKP5-CD and p38α MAPK phosphopeptide (DDE(Nle)(pT)G(pY)VATR) substrate were diluted into PTP buffer (50 mM Tris pH 7.2, 1 mM EDTA, 0.1% β-mercaptoethanol, 0.01% Triton X-100). The screen was performed in two distinct phases. An initial screen against a subset of the compound library was carried out in the following conditions: 1.5 μM MKP5-CD, 25 μM phosphopeptide, 30 min at 37° C. A second follow-up screen was performed with the following modifications: 0.5 μM MKP5-CD, 50 μM phosphopeptide, 15 min at 30° C. Test compounds (20 nL) were dispensed with either an Aquarius (Tecan) pintool system (initial phase) or Echo 550 (Labcyte) acoustic dispenser (follow-up phase). In both phases, the test compound concentration was 20 μM in the 10 μL reaction and the final DMSO was 0.2%. […] The plate was incubated for 10-15 min at room temperature to allow color development and absorbance at 620 nm measured. The signal-to-background (S/B) ratio was calculated from the mean absorbance of vehicle-treated wells with and without enzyme (negative and positive controls; n=32 per condition). Percent inhibition of test wells was calculated from the mean positive and negative controls on each plate. […]
# [4] = tested on: ERK1/2; assay: ERK1/2 activation in C2C12 myoblasts (pMAPK/MAPK immunoblot); type: cell-based, mouse; conditions: even at the highest concentration
# Experimental: as §1
# [5] = target: T3, STEP-46 (Homo sapiens, UniProt P54829); assay: STEP-46 pNPP counterscreen; type: biochemical; conditions: pNPP assay, FIG. 15; read-out: IC50 against STEP-46
# T3 sequence (P54829 1-565): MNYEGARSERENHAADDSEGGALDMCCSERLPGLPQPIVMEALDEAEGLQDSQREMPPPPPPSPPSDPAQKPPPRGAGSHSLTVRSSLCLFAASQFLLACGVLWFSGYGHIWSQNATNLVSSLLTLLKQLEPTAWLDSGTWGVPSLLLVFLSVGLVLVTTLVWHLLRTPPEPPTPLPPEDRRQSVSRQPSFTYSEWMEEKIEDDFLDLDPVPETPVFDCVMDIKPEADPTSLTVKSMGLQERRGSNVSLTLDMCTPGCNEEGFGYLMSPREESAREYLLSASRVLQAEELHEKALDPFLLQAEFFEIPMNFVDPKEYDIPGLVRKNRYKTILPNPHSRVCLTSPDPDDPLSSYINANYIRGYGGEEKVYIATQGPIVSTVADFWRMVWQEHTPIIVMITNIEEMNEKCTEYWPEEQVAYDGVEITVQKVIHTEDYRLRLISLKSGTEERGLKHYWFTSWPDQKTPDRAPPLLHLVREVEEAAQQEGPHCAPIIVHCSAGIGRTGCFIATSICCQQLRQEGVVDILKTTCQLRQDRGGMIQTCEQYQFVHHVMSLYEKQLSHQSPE
# Experimental: (§3) To test for 1 activity on STEP-46, a pNPP assay was employed with 1.5 μM STEP46 and 10 mM pNPP. After 30 min at room temperature, absorbance at 405 nm was measured. For comparison, MKP5-CD was tested in the pNPP assay under identical conditions. For PTP1B, the Millipore PTP1B assay kit (#539736) was performed as recommended by the manufacturer except that malachite green was used for detection.
# [6] = tested on: p38α MAPK; assay: p38α MAPK activation in C2C12 myoblasts (pMAPK/MAPK immunoblot); type: cell-based, mouse
# Experimental: as §1
# [7] = tested on: MKP5-CD Y435A, Y435S, Y435W mutants; assay: Binding and inhibition of Tyr435 mutant MKP5-CD constructs; type: biochemical; conditions: FIG. 3C
# Experimental: The catalytic domain of MKP5 (MKP5-CD, residues 320-467) was inserted into a pET-28a vector for expression. Mutant constructs were generated according to the QuikChange II (Agilent) site directed mutagenesis protocol. Constructs were transformed into BL21 (DE3) cells and grown in LB containing 100 μg/mL kanamycin to an OD of 0.8. Protein expression was induced with 1 mM IPTG, and cells were harvested after overnight incubation at 22° C.
# as §2, with “Experiments were performed in triplicate and data are presented as means±SD.” left out
# [8] = tested on: Smad2; assay: TGF-β1-mediated Smad2 phosphorylation in wild type MEFs; type: cell-based, mouse; conditions: TGF-β1 1 ng/ml 10 minutes
# Experimental: as §1
# [9] = tested on: p38α MAPK; assay: p38α MAPK phosphorylation in wild type MEFs; type: cell-based, mouse
# Experimental: as §1
# [10] = target: T4, catalytic domain of MKP1 (MKP1-CD) (Homo sapiens, UniProt P28562); assay: Malachite green assay of MKP1-CD; type: biochemical
# T4 construct: MKP1-CD (human aa 172-314); purchased ARVYS Proteins (Trumbull, CT)
# T4 sequence (P28562 172-314): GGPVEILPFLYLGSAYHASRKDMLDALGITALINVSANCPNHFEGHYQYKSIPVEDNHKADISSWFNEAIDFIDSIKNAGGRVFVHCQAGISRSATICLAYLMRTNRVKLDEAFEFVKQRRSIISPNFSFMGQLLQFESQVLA
# Experimental: Compound 1 selected from the screen was tested for activity against MKP1 and MKP5 using the malachite green assay. For MKP5-CD, the same conditions for the screening assay were used. For MKP1-CD, the following conditions were used: 1 μM MKP1-CD, 50 μM pTpY, 120 min at 30° C.
# [11] = target: T5, PTP-1B (Homo sapiens, UniProt P18031); assay: PTP1B counterscreen (Millipore kit, malachite green detection); type: biochemical; conditions: FIG. 15; read-out: IC50 against PTP-1B
# T5 construct: purchased Millipore 539736
# T5 sequence (P18031 1-435): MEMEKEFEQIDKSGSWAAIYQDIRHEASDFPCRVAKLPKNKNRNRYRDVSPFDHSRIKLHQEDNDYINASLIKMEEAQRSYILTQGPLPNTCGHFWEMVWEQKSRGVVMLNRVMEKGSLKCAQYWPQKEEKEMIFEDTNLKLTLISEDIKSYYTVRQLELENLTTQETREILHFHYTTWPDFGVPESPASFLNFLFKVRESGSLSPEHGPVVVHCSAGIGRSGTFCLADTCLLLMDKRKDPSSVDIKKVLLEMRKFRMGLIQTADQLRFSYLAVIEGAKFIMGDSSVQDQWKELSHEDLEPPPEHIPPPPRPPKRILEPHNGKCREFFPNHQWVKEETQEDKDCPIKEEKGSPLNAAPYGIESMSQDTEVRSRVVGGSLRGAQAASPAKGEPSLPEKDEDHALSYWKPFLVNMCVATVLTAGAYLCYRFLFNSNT
# Experimental: as §3
# [12] = tested on: ERK1/2; assay: ERK1/2 phosphorylation in wild type MEFs; type: cell-based, mouse
# Experimental: as §1
# [13] = target: T1, MKP5-CD; assay: Phosphate sensor kinetic assay with full-length p38α MAPK as substrate; type: biochemical; conditions: 25 μM inhibitor, varying p38α MAPK
# Experimental: The phosphate sensor protein (PS) was purchased from Life Technologies (Lot #1962036B). To characterize the activity of MKP5-CD against full length p38α MAPK, 5 nM MKP5-CD and 0.5 μM PS were combined in 50 mM Tris (pH 7.6), 25 mM NaCl, 0.01% Triton X100 and […] and added to a Corning #4511 384-well plate. Using an Echo 550 liquid handler (LabCyte Inc.), either 25 μM compound 1 or neat DMSO were added to a final DMSO concentration of 0.2%. Reactions were initiated with up to 300 μM p38α MAPK, a concentration approximately 5 times the KM of MKP5-CD39, and allowed to proceed at ambient temperature for 20 minutes. Fluorescence was continuously monitored by Tecan Infinite M1000 with excitation at 425 f 5 nm and emission at 454 f 5 nm. Raw fluorescence was converted to phosphate release using a standard curve generated the same day as kinetic experiments. The initial velocity was determined for each well based on reaction progress in the first 120 seconds. These velocities were then plotted against substrate concentration and fit to a mixed-mechanism inhibition curve.
# [14] = tested on: JNK; assay: JNK phosphorylation in wild type MEFs; type: cell-based, mouse
# Experimental: as §1
smiles,measurement,setting,value
"CSc1scc2c1-c1nc(SCC(=O)C(C)(C)C)ncc1CC2 [Compound 1, 3,3-Dimethyl-1-((9-(methylthio)-5,6-dihydrothieno[3,4-h]quinazolin-2-yl)thio)butan-2-one]",JNK activation,[1]; 24 h,increased upon treatment of C2C12 myoblasts but with less effectiveness as compared with p38 MAPK
same,induction of JNK activity,[1]; highest concentration,1.4 fold
same,Kd,[2],1 ± 0.2 µM
same,IC50,[3],~4.2 µM
same,IC50,"[3]; resynthesized compound, p38α MAPK phosphopeptide substrate, FIG. 1E, read-out: IC50 against MKP5-CD",3.9 ± 0.6 µM
same,activation status of ERK1/2,[4],did not alter
same,IC50,[5],> 200 µM
same,activation of p38α MAPK,[6]; 24 h,increased in a dose-dependent manner
same,induction of p38α MAPK activity,[6]; highest concentration,2.0 fold
same,binding to and inhibition of Tyr435 mutants,[7],only capable of binding to and inhibiting the activity of the Y435W mutant
same,TGF-β1-mediated Smad2 phosphorylation,[8],inhibited
same,phosphorylation of p38α MAPK,[9],dose-dependent increase
same,IC50,"[10]; FIG. 1F, read-out: IC50 towards the catalytic domain of MKP1",> 60 µM
same,reduction in potency for MKP1 relative to MKP5,[10]; MKP1 versus MKP5,16 fold
same,IC50,[11],> 100 µM
same,phosphorylation of ERK1/2,[12],not ERK1/2
same,mode of inhibition,[13],mixed competitive mode of inhibition
same,α of mixed-mechanism inhibition fit,[13],≈ 4.6
same,phosphorylation of JNK,[14],dose-dependent increase
